CC[C@H](/C=C/[C@@H](C)[C@H]1CC[C@H]2[C@@H]3CC=C4C[C@@H](OC(=O)/C=C\C(=O)O)CC[C@]4(C)[C@H]3CC[C@]12C)C(C)C
Settings	solubility (mole fraction)
in acetone, 293.15 K	0.000383
in acetone, 296.65 K	0.000431
in acetone, 303.65 K	0.000535
in acetone, 317.15 K	0.000785
in acetone, 325.65 K	0.00102
in ethyl acetate, 288.15 K	0.00146
in ethyl acetate, 293.25 K	0.00179
in ethyl acetate, 298.15 K	0.00202
in ethyl acetate, 302.65 K	0.0028
in ethyl acetate, 308.65 K	0.00395
in ethyl acetate, 312.65 K	0.00438
in ethyl acetate, 317.35 K	0.0053
